# Laboratory results reported in article PMC6891756, “Synthesis and Biological Evaluation of Novel Aminochalcones as Potential Anticancer and Antimicrobial Agents” (Molecules, 2019).
# Like-named read-outs stand apart in the source and are kept apart here.
# What was measured:
# [1] = system: HT-29 cell line; set-up: method as in doi:10.1007/s00044-011-9549-9; details: read-out: IC50 HT-29 (literature); cited from earlier work
# [2] = system: Aspergillus niger DSM1957; test: MIC evaluation (broth method), A. niger; type: cell-based; details: Aspergillus niger, DSM1957, 48–72 h, read-out: Minimal inhibitory concentration A. niger
# Procedure: (§1) Sterile 96-well microtiter plates (Sarstedt) with nutrient broth (for bacteria) (Biocorp) or YM medium (for yeast and filamentous fungi) were inoculated with a standardized cell suspension of bacteria and yeast or fungal spores of 10^5 cell·mL^−1, and supplemented with aminochalcones dissolved in DMSO. […] All analysis were conducted in triplicates. The plates were incubated at 30 °C (bacteria and yeast) or 25 °C (filamentous fungi) for 48–72 h. The results were measured with the Spark® Multimode Microplate Reader (Tecan, Männedorf, Switzerland) at a 560 nm wavelength. The minimal inhibitory concentration was defined as the lowest concentration of a tested compound that completely restricted the growth of the microorganism. In order to verify the obtained results, microbial cultures subjected to each concentration of aminochalcone were inoculated onto nutrient agar or YM plates and incubated as described above. The lack of growth on agar plate was a confirmation of the MIC of the tested compound. The resulting MIC values were compared with the reference substances: oxytetracycline (against bacteria), cycloheximide (against yeast) and nystatin (against fungi) (Sigma Aldrich).
# [3] = system: Fusarium linii KB-F1; test: Microbial growth curve screening, F. linii; type: cell-based; details: 0.1% (w/v); for ∆OD F. linii: OD at 560 nm, control 1.95; for Lag-phase F. linii: control 13.5 h
# Outline: (§2)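 Bacteria grew in nutrient broth and fungi in YM medium with compound at 0.1% (w/v) final, added from DMSO. Cultures were shaken at 28 °C for 2–3 days, with OD at 560 nm read every 30 min. Activity is the increase in optical density (ΔOD) relative to DMSO controls.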
# [4] = system: Staphylococcus aureus DSM799; test: Microbial growth curve screening, S. aureus; type: cell-based; details: 0.1% (w/v), OD at 560 nm, control 1.67
# Outline: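 Growth inhibition is expressed as ΔOD, compared with cultures in medium containing DMSO alone. Triplicate wells with 0.1% (w/v) compound were followed at 560 nm for 2–3 days at 28 °C.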
# [5] = system: Staphylococcus aureus DSM799; test: MIC evaluation (broth method), S. aureus; type: cell-based; details: 48–72 h, read-out: Minimal inhibitory concentration S. aureus
# Outline: (§3)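 Microdilution, YM (yeast/fungi) or nutrient broth (bacteria); 10^5 cell·mL^−1; compounds in DMSO; 25 °C fungi / 30 °C yeast, bacteria; 48–72 h; A560; MIC = no growth, agar-plate confirmed; n=3.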
# [6] = system: HT-29 cell line; set-up: method as in PMID 24675137; details: cited from earlier work
# [7] = system: LoVo; test: SRB antiproliferative assay, LoVo; type: cell-based, human; details: 48 h, 1–100 µg·mL^−1, ND = not detected in the tested concentration range; for IC50: Homo sapiens, LoVo
# Outline: (§4)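 Cells seeded at 5·10^3/well, cultured overnight, then exposed to aminochalcone derivatives at 1–100 µg·mL^−1 for 48 h at 37 °C, 5% CO2. Growth measured by sulforhodamine B staining; IC50 from three independent experiments, each in quadruplicate.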
# [8] = system: HT-29; test: SRB antiproliferative assay, HT-29; type: cell-based, human; details: for IC50: Homo sapiens, HT-29
# Outline: as §4
# [9] = system: Alternaria alternata CBS1526; test: Microbial growth curve screening, A. alternata; type: cell-based; details: 0.1% (w/v), OD at 560 nm, control 1.86
# Outline: as §2
# [10] = system: Escherichia coli ATCC10536; test: Microbial growth curve screening, E. coli; type: cell-based; details: 0.1% (w/v); for ∆OD E. coli: OD at 560 nm, control 1.61
# Outline: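 First, microbial suspension and DMSO-dissolved compound (final 0.1% w/v) were combined in medium: nutrient broth for bacteria, YM for fungi. Plates were then incubated at 28 °C under shaking while absorbance at 560 nm was logged at 30 min intervals over 2–3 days. Finally, mean curves gave ΔOD against controls.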
# [11] = SRB assay, normal fibroblasts COS7; type: cell-based, green monkey; details: green monkey, COS7 kidney fibroblasts (normal cell line), ND = not detected in the tested concentration range
# Outline: (§5)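 Antiproliferative effect is determined by SRB after 48 h incubation with compound concentrations from 1 to 100 µg·mL^−1, in quadruplicate; IC50 averaged over three experiments.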
# [12] = system: LS180; test: SRB antiproliferative assay, LS180; type: cell-based, human; details: 1–100 µg·mL^−1, ND = not detected in the tested concentration range; for IC50: Homo sapiens, LS180, 48 h
# Outline: as §4
# [13] = system: Alternaria alternata CBS1526; test: MIC evaluation (broth method), A. alternata; type: cell-based; details: Alternaria alternata, CBS1526, 48–72 h, read-out: Minimal inhibitory concentration A. alternata
# Procedure: as §1
# [14] = system: Candida albicans DSM1386; test: Microbial growth curve screening, C. albicans; type: cell-based; details: 0.1% (w/v)
# Outline: as §2
# [15] = system: LoVo/DX; test: SRB antiproliferative assay, LoVo/DX; type: cell-based, human; details: 48 h, 1–100 µg·mL^−1, ND = not detected in the tested concentration range; for IC50: Homo sapiens, LoVo/DX
# Outline: as §4
# [16] = system: Candida albicans DSM1386; test: MIC evaluation (broth method), C. albicans; type: cell-based; details: DSM1386, broth method, 48–72 h, read-out: Minimal inhibitory concentration C. albicans
# Procedure: as §1
# [17] = system: Aspergillus niger DSM1957; test: Microbial growth curve screening, A. niger; type: cell-based; details: 0.1% (w/v)
# Outline: as §2
# [18] = system: HT-29, LS180, LoVo and LoVo/DX; test: SRB assay, all tested human colon cancer cell lines (pooled statement); type: cell-based; details: range over HT-29, LS180, LoVo, read-out: IC50 values against all tested human colon cancer cell lines
# Procedure: Anticancer activity was evaluated using the sulforhodamine B assay (SRB) on four different human colon cancer cell lines: HT-29, LS180, LoVo and LoVo/DX and green monkey kidney fibroblasts COS7 (ATCC, Manassas, VA, USA). Cell lines HT-29 and COS7 were cultured in α-MEM medium (IIET PAS, Wrocław, Poland), LS180 in OptiMEM medium (IIET PAS), LoVo and LoVo/DX in mixture of α-MEM and OptiMEM medium (1:1 (v:v)). Each culture medium was supplemented with 10% fetal bovine serum, 2 mM glutamine, 100 μg·mL^−1 penicillin, 100 μg·mL^−1 streptomycin and 0.25 μg·mL^−1 amphotericin (all supplements purchased from Gibco (Paisley, UK). Cells were incubated at 37 °C, 5% CO2 in HeraCELL 150i incubator (Thermo Fisher Scientific, Waltham, MA, USA).
# For the SRB assay, cells were seeded onto 96-well plates (Sarstedt, Nümbrecht, Germany) at a density of 5·10^3/well and cultured overnight as described above. Then, the growth medium was gently removed and replaced with fresh medium, supplemented with aminochalcone derivatives in the concentration ranging from 1 µg·mL^−1 to 100 µg·mL^−1. All stock solutions were prepared in DMSO at a concentration of 10 mg·mL^−1. Cells were incubated for 48 h and then the SRB assay was performed as described previously. Each experiment was performed in quadruplicate. The final results were reported as the IC50 values calculated for three independent experiments. […]
# [19] = system: Escherichia coli ATCC10536; test: MIC evaluation (broth method), E. coli; type: cell-based; details: 48–72 h, read-out: Minimal inhibitory concentration E. coli
# Outline: as §3
# [20] = system: all tested microorganisms; test: MIC evaluation, all tested strains (pooled statement); type: cell-based; details: read-out: MIC values against all tested microorganisms
# Procedure: as §1
# [21] = system: Fusarium linii KB-F1; test: MIC evaluation (broth method), F. linii; type: cell-based; details: Fusarium, KBF1, 48–72 h, read-out: Minimal inhibitory concentration F. linii
# Procedure: as §1
# [22] = system: human breast cancer cell line T47D; set-up: method as in earlier work; details: cited from earlier work
# [23] = system: all tested microorganisms; test: Growth curve screening, all tested microorganisms (pooled statement); type: cell-based; details: 0.1% (w/v)
# Procedure: The antimicrobial screening tests were performed on two strains of bacteria: E. coli ATCC10536 and S. aureus DSM799, strain of yeast C. albicans DSM1386 and three strains of fungi: F. linii KB-F1, A. alternata CBS1526 and A. niger DSM1957. All microorganisms were obtained from the collection of the Faculty of Biotechnology and Food Microbiology, Wrocław University of Environmental and Life Sciences. The bacteria were cultured in nutrient broth (Biocorp, Warsaw, Poland), yeast and fungi in YM medium (3 g yeast extract, 3 g malt extract, 5 g bacteriological peptone and 10 g of glucose dissolved in 1 L of distilled water). The tests were carried out in 100-well microtiter plates. […] The optical density of the cell suspension was measured on Bioscreen C (Automated Growth Curve Analysis System Lab System, Vantaa, Finland) at 560 nm automatically, at regular intervals of 30 min for 2–3 days. […] To prepare the growth curves for each strain, the mean values of the absorbance in a function of time were used. The resulting antimicrobial activity was expressed as the increase of optical density (ΔOD) and was compared to that of the control cultures in the medium supplemented with dimethyl sulfoxide and also with reference substances: oxytetracycline (against bacteria), cycloheximide (against yeast) and nystatin (against fungi) (Sigma Aldrich).
# [24] = system: green monkey kidney fibroblasts COS7; test: SRB assay, normal fibroblasts COS7; type: cell-based; details: 48 h, normal cell line, ND = not detected in the tested concentration range
# Outline: as §5
# [25] = SRB, 48 h, 1–100 µg·mL^−1, ND = not detected in the tested concentration range
Structure (SMILES),MIC [2],∆OD F. linii [3],Lag-phase F. linii [3],∆OD S. aureus [4],MIC [5],IC50 [7],"IC50 [8, 25]",∆OD A. alternata [9],∆OD E. coli [10],IC50 at 48 h [11],IC50 [12],MIC [13],IC50 [15],MIC [16],MIC [19],further results
Nc1ccc(C(=O)/C=C/c2ccccc2Cl)cc1 [4′-amino-2-chlorochalcone],–,–,–,–,–,–,–,–,–,–,–,–,–,–,–,IC50 [1]: 26.2 µM
"Nc1ccccc1C(=O)/C=C/c1ccccc1 [Compound 1, 2′-Aminochalcone]",0.125 µg/mL,0.73,18.5 h,0.0,0.25 µg/mL,1.56 ± 0.04 µg/mL,1.43 ± 0.16 µg/mL,0.0,0.12,2.64 ± 0.47 µg/mL,2.06 ± 0.18 µg/mL,1 µg/mL,1.43 ± 0.02 µg/mL,–,–,"IC50 HT-29 (literature) [6]: 0.98 µg/mL; IC50 ([6]; read-out: IC50 HT-29 (literature)): 4.39 µM; times higher activity than cisplatin, HT-29 ([8]; ratio of IC50 values vs cisplatin (19)): ~12 times; Lag-phase E. coli ([10]; control 4.0 h): 10.0 h; ∆OD C. albicans ([14]; OD at 560 nm, control 1.58): 0.14; Lag-phase C. albicans ([14]; control 3.0 h): 24.5 h"
"Nc1cccc(C(=O)/C=C/c2ccccc2)c1 [Compound 2, 3′-Aminochalcone]",–,0.23,30.0 h,0.0,0.25 µg/mL,1.88 ± 0.12 µg/mL,1.6 ± 0.01 µg/mL,0.0,0.0,3.25 ± 0.66 µg/mL,2.13 ± 0.18 µg/mL,0.5 µg/mL,1.97 ± 0.3 µg/mL,0.5 µg/mL,0.25 µg/mL,"melting point: 121 to 124 °C; ∆OD A. niger ([17]; OD at 560 nm, control 2.14): 0.34; Lag-phase A. niger ([17]; control 11.0 h): 1.5 h; IC50 [18]: 1.6 to 2.13 µg/mL"
"Nc1ccc(C(=O)/C=C/c2ccccc2)cc1 [Compound 3, 4′-Aminochalcone]",0.5 µg/mL,0,–,0.0,0.25 µg/mL,2.84 ± 0.09 µg/mL,1.98 ± 0.18 µg/mL,0.0,0.0,3.85 ± 0.28 µg/mL,4.68 ± 0.09 µg/mL,0.5 µg/mL,2.26 ± 0.05 µg/mL,0.5 µg/mL,0.5 µg/mL,MIC [20]: 0.25 to 0.5 µg/mL; MIC [21]: 0.25 µg/mL; IC50 T47D (literature) [22]: 5.28 µg/mL; growth inhibition of all tested microorganisms [23]: complete inhibition of the growth
"N.N.[Cl][Pt][Cl] [Compound 19, Cisplatin, reference compound]",–,–,–,–,–,–,–,–,–,–,–,–,–,–,–,"IC50 LoVo [7]: 2.09 ± 0.12 µg/mL; IC50 HT-29 [8, 25]: 16.73 ± 0.58 µg/mL; IC50 COS7 [24]: 3.86 ± 0.62 µg/mL; IC50 LS180 ([12]; 48 h): 1.49 ± 0.13 µg/mL; IC50 LoVo/DX [15]: 2.03 ± 0.17 µg/mL"
